Reference: ChEMBL document CHEMBL5050844 (2019)

Assays:
[1] = Induction of anti-CD3/CD28 antibodies-stimulated human T cell activation at 0.3 uM assessed fold increase in CD25 expression measured by ELISA assay; format: functional, T cell line
[2] = target: T1, E3 ubiquitin-protein ligase CBL-B (Homo sapiens, UniProt Q13191); assay: Binding affinity towards N-terminal biotinylated Avi-tagged human CBL-B (36 to 427 residues) measured by surface plasmon resonance assay
[3] = Induction of anti-CD3 antibodies-stimulated human T cell activation at 1 uM assessed fold increase in CD25 expression measured by ELISA assay; format: functional, T cell line
[4] = Induction of anti-CD3 antibodies-stimulated human T cell activation at 8 uM assessed fold increase in CD25 expression measured by ELISA assay; format: functional, T cell line
[5] = Induction of anti-CD3 antibodies-stimulated human T cell activation at 1 uM assessed fold increase in IL-2 secretion measured by ELISA assay; format: functional, T cell line
[6] = Induction of anti-CD3/CD28 antibodies-stimulated human T cell activation at 1 uM assessed fold increase in IL-2 secretion measured by ELISA assay; format: functional, T cell line
[7] = Induction of anti-CD3 antibodies-stimulated human T cell activation at 8 uM assessed fold increase in IL-2 secretion measured by ELISA assay; format: functional, T cell line
[8] = target: T1, E3 ubiquitin-protein ligase CBL-B; assay: Inhibition of N-terminal Avi-tagged human CBL-B (36 to 427 residues) incubated with 60 nM Src kinase for 1.5 hrs followed by incubation with fluorescently labeled UbcH5B-Ub for 1 hr and measured by TR-FRET assay; format: single protein
[9] = Induction of anti-CD3/CD28 antibodies-stimulated human T cell activation at 4 uM assessed fold increase in CD25 expression measured by ELISA assay; format: functional, T cell line
[10] = Induction of anti-CD3/CD28 antibodies-stimulated human T cell activation at 0.3 uM assessed fold increase in IL-2 secretion measured by ELISA assay; format: functional, T cell line
[11] = Induction of anti-CD3/CD28 antibodies-stimulated human T cell activation at 1 uM assessed fold increase in CD25 expression measured by ELISA assay; format: functional, T cell line
[12] = Induction of anti-CD3/CD28 antibodies-stimulated human T cell activation at 4 uM assessed fold increase in IL-2 secretion measured by ELISA assay; format: functional, T cell line

T1 sequence (Q13191 whole entry, the tested form may be a part): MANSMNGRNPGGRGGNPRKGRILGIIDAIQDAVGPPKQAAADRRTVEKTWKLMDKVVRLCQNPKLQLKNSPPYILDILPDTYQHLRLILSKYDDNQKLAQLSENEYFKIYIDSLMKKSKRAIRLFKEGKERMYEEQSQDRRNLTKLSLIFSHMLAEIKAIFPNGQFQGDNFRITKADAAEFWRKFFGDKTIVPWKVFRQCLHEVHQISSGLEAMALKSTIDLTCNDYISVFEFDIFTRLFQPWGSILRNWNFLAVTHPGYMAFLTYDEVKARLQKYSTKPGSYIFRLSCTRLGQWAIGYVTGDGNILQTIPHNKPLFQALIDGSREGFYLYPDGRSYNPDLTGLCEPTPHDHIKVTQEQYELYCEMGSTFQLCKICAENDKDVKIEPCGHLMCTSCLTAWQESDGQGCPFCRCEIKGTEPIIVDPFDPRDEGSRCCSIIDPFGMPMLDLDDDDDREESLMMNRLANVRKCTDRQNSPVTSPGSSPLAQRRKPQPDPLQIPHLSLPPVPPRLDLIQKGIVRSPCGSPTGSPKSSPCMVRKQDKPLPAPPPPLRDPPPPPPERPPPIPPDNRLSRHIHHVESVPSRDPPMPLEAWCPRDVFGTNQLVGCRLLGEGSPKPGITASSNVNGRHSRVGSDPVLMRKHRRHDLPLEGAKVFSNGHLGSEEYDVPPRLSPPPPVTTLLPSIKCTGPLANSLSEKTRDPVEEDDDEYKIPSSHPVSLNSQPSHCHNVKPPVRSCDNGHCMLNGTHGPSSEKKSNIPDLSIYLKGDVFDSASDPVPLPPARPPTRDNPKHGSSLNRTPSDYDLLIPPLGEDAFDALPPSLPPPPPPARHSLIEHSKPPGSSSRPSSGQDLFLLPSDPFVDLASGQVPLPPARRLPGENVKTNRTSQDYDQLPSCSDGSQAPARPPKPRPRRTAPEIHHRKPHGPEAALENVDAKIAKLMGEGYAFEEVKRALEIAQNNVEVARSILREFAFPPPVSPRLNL

## Cn1cnnc1C(F)(F)[C@](C)(F)c1cccc(N2Cc3c(cc(CN4CC[C@@H](S(C)(=O)=O)C4)cc3C(F)(F)F)C2=O)c1
[1]
  fold change (FC): 1.01
[2]
  Kd: < 100 nM
[3]
  fold change (FC): 0.801
[4]
  fold change (FC): >=1.001
[5]
  fold change (FC): 0.151
[6]
  fold change (FC): 5
[7]
  fold change (FC): >=0.201
[8]
  IC50: < 100 nM
[9]
  fold change (FC): 1.31
[10]
  fold change (FC): 2.51
[11]
  fold change (FC): 1.01
[12]
  fold change (FC): >=7.5

## Cn1cnnc1CC1(c2cccc(N3Cc4c(cc(CN5CCC(F)(F)C5)cc4C(F)(F)F)C3=O)c2)COC1
[1]
  fold change (FC): 1.01
[2]
  Kd: < 100 nM
[3]
  fold change (FC): >=1.001
[4]
  fold change (FC): >=1.001
[5]
  fold change (FC): >=0.201
[6]
  fold change (FC): >=7.5
[7]
  fold change (FC): >=0.201
[8]
  IC50: < 100 nM
[9]
  fold change (FC): 1.01
[10]
  fold change (FC): 2.51
[11]
  fold change (FC): 1.01
[12]
  fold change (FC): >=7.5

## C[C@H](Cc1nncn1C)c1cccc(N2Cc3c(cc(CO)cc3C(F)(F)F)C2=O)c1
[1]
  fold change (FC): 1.01
[2]
  Kd: < 100 nM
[3]
  fold change (FC): >=1.001
[4]
  fold change (FC): >=1.001
[5]
  fold change (FC): 0.151
[6]
  fold change (FC): 5
[7]
  fold change (FC): >=0.201
[8]
  IC50: < 100 nM
[9]
  fold change (FC): 1.31
[10]
  fold change (FC): 2.51
[11]
  fold change (FC): 1.01
[12]
  fold change (FC): >=7.5

## CNc1cc([C@H](C)Cc2nncn2C)cc(N2Cc3c(cccc3C(F)(F)F)C2=O)n1
[1]
  fold change (FC): 1.01
[2]
  Kd: < 100 nM
[3]
  fold change (FC): 0.601
[4]
  fold change (FC): >=1.001
[5]
  fold change (FC): 0.051
[6]
  fold change (FC): 1.01
[7]
  fold change (FC): 0.151
[8]
  IC50: < 100 nM
[9]
  fold change (FC): 1.31
[10]
  fold change (FC): 1.01
[11]
  fold change (FC): 1.01
[12]
  fold change (FC): 5

## C[C@H](Cc1nncn1C)c1cccc(N2Cc3c(cc(CN4CC(F)C4)cc3C(F)(F)F)C2=O)c1
[1]
  fold change (FC): 1.01
[2]
  Kd: < 100 nM
[3]
  fold change (FC): >=1.001
[4]
  fold change (FC): >=1.001
[5]
  fold change (FC): 0.151
[6]
  fold change (FC): >=7.5
[7]
  fold change (FC): >=0.201
[8]
  IC50: < 100 nM
[9]
  fold change (FC): 1.31
[10]
  fold change (FC): 2.51
[11]
  fold change (FC): 1.01
[12]
  fold change (FC): >=7.5

## CC1C=NN=C1C[C@@H](C)c1cccc(N2Cc3c(cc(C(=O)N4C[C@@H](O)C[C@H]4C)cc3C(F)(F)F)C2=O)c1 (stereo partly specified)
[1]
  fold change (FC): 1.01
[2]
  Kd: < 100 nM
[3]
  fold change (FC): >=1.001
[4]
  fold change (FC): >=1.001
[5]
  fold change (FC): 0.151
[6]
  fold change (FC): 2.51
[7]
  fold change (FC): >=0.201
[8]
  IC50: < 100 nM
[9]
  fold change (FC): 1.31
[10]
  fold change (FC): 1.01
[11]
  fold change (FC): 1.01
[12]
  fold change (FC): >=7.5

## C[C@H](Cc1nncn1C)c1cccc(N2Cc3c(cc([C@@H](C)N4CC[C@H](F)C4)cc3C(F)(F)F)C2=O)c1
[1]
  fold change (FC): 1.01
[2]
  Kd: < 100 nM
[3]
  fold change (FC): >=1.001
[4]
  fold change (FC): >=1.001
[5]
  fold change (FC): 0.151
[6]
  fold change (FC): >=7.5
[7]
  fold change (FC): >=0.201
[8]
  IC50: < 100 nM
[9]
  fold change (FC): 1.31
[10]
  fold change (FC): 5
[11]
  fold change (FC): 1.01
[12]
  fold change (FC): >=7.5

## C[C@H](Cc1nncn1C)c1cccc(N2Cc3c(cc(CN4CCC(F)(F)C4)cc3C(F)(F)F)C2=O)c1
[1]
  fold change (FC): 1.01
[2]
  Kd: < 100 nM
[3]
  fold change (FC): >=1.001
[4]
  fold change (FC): >=1.001
[5]
  fold change (FC): 0.151
[6]
  fold change (FC): 5
[7]
  fold change (FC): >=0.201
[8]
  IC50: < 100 nM
[9]
  fold change (FC): 1.31
[10]
  fold change (FC): 2.51
[11]
  fold change (FC): 1.01
[12]
  fold change (FC): >=7.5

## C[C@H](Cc1nncn1C)c1cccc(N2Cc3c(cc(C(=O)N4C[C@@H](O)C[C@H]4C)cc3C(F)(F)F)C2=O)c1.O=C(O)C(F)(F)F
[1]
  fold change (FC): 1.31
[2]
  Kd: < 100 nM
[3]
  fold change (FC): 0.801
[4]
  fold change (FC): >=1.001
[5]
  fold change (FC): >=0.201
[6]
  fold change (FC): 5
[7]
  fold change (FC): >=0.201
[8]
  IC50: < 100 nM
[9]
  fold change (FC): >=1.76
[10]
  fold change (FC): 2.51
[11]
  fold change (FC): 1.51
[12]
  fold change (FC): >=7.5

## C[C@H](Cc1nncn1C)c1cccc(N2Cc3c(cc(-n4cccn4)cc3C(F)(F)F)C2=O)c1
[1]
  fold change (FC): 1.31
[2]
  Kd: < 100 nM
[3]
  fold change (FC): >=1.001
[4]
  fold change (FC): >=1.001
[5]
  fold change (FC): >=0.201
[6]
  fold change (FC): >=7.5
[7]
  fold change (FC): >=0.201
[8]
  IC50: < 100 nM
[9]
  fold change (FC): 1.51
[10]
  fold change (FC): 2.51
[11]
  fold change (FC): 1.51
[12]
  fold change (FC): >=7.5

## C[C@H](Cc1nncn1C)c1cccc(N2Cc3c(cc(CN4C[C@@H](F)[C@@H](O)C4)cc3C(F)(F)F)C2=O)c1
[1]
  fold change (FC): 1.01
[2]
  Kd: < 100 nM
[3]
  fold change (FC): >=1.001
[4]
  fold change (FC): >=1.001
[5]
  fold change (FC): 0.151
[6]
  fold change (FC): 5
[7]
  fold change (FC): >=0.201
[8]
  IC50: < 100 nM
[9]
  fold change (FC): 1.31
[10]
  fold change (FC): 2.51
[11]
  fold change (FC): 1.31
[12]
  fold change (FC): >=7.5

## Cn1cnnc1C(F)(F)[C@](C)(F)c1cccc(N2Cc3c(cc(CN4CC[C@H](S(C)(=O)=O)C4)cc3C(F)(F)F)C2=O)c1
[1]
  fold change (FC): 1.01
[2]
  Kd: < 100 nM
[3]
  fold change (FC): 0.801
[4]
  fold change (FC): >=1.001
[5]
  fold change (FC): 0.101
[6]
  fold change (FC): 2.51
[7]
  fold change (FC): >=0.201
[8]
  IC50: < 100 nM
[9]
  fold change (FC): 1.01
[10]
  fold change (FC): 2.51
[11]
  fold change (FC): 1.01
[12]
  fold change (FC): >=7.5

## CC(C)Nc1cc([C@H](C)Cc2nncn2C)cc(N2Cc3c(cccc3C(F)(F)F)C2=O)n1
[1]
  fold change (FC): 1.01
[2]
  Kd: < 100 nM
[3]
  fold change (FC): 0.801
[4]
  fold change (FC): >=1.001
[5]
  fold change (FC): 0.101
[6]
  fold change (FC): 2.51
[7]
  fold change (FC): >=0.201
[8]
  IC50: < 100 nM
[9]
  fold change (FC): 1.31
[10]
  fold change (FC): 1.01
[11]
  fold change (FC): 1.01
[12]
  fold change (FC): >=7.5

## Cc1n[nH]c(C)c1-c1cc2c(c(C(F)(F)F)c1)CN(c1cccc([C@H](C)Cc3nncn3C)c1)C2=O
[1]
  fold change (FC): 1.31
[2]
  Kd: < 100 nM
[3]
  fold change (FC): >=1.001
[4]
  fold change (FC): >=1.001
[5]
  fold change (FC): >=0.201
[6]
  fold change (FC): >=7.5
[7]
  fold change (FC): >=0.201
[8]
  IC50: < 100 nM
[9]
  fold change (FC): >=1.76
[10]
  fold change (FC): 2.51
[11]
  fold change (FC): 1.51
[12]
  fold change (FC): >=7.5

## Cn1cnnc1CC(C)(C)c1cccc(N2Cc3c(cc(C4CC4)cc3C(F)(F)F)C2=O)c1
[1]
  fold change (FC): 1.01
[2]
  Kd: < 100 nM
[3]
  fold change (FC): 0.801
[4]
  fold change (FC): >=1.001
[5]
  fold change (FC): 0.101
[6]
  fold change (FC): 2.51
[7]
  fold change (FC): >=0.201
[8]
  IC50: < 100 nM
[9]
  fold change (FC): 1.31
[10]
  fold change (FC): 1.01
[11]
  fold change (FC): 1.01
[12]
  fold change (FC): 5

## C[C@H](CC1=NN=CC1C(F)(F)F)c1cccc(N2Cc3c(cc(C(=O)N4CC[C@H](O)C4)cc3C(F)(F)F)C2=O)c1 (stereo partly specified)
[1]
  fold change (FC): 1.01
[2]
  Kd: < 100 nM
[3]
  fold change (FC): 0.801
[4]
  fold change (FC): >=1.001
[5]
  fold change (FC): 0.051
[6]
  fold change (FC): 1.01
[7]
  fold change (FC): 0.151
[8]
  IC50: < 100 nM
[9]
  fold change (FC): 1.01
[10]
  fold change (FC): 1.01
[11]
  fold change (FC): 1.01
[12]
  fold change (FC): 2.51

## C[C@H](Cc1nncn1C)c1cccc(N2Cc3c(cc(CN4CC(O)C(F)(F)C4)cc3C(F)(F)F)C2=O)c1 (stereo partly specified)
[1]
  fold change (FC): 1.01
[2]
  Kd: < 100 nM
[3]
  fold change (FC): >=1.001
[4]
  fold change (FC): >=1.001
[5]
  fold change (FC): 0.101
[6]
  fold change (FC): 5
[7]
  fold change (FC): >=0.201
[8]
  IC50: < 100 nM
[9]
  fold change (FC): 1.31
[10]
  fold change (FC): 2.51
[11]
  fold change (FC): 1.31
[12]
  fold change (FC): >=7.5

## C[C@H](Cc1nncn1C)c1cccc(N2Cc3c(cc(CN4CC(F)(F)C4)cc3C(F)(F)F)C2=O)c1
[1]
  fold change (FC): 1.01
[2]
  Kd: < 100 nM
[3]
  fold change (FC): >=1.001
[4]
  fold change (FC): >=1.001
[5]
  fold change (FC): 0.151
[6]
  fold change (FC): >=7.5
[7]
  fold change (FC): >=0.201
[8]
  IC50: < 100 nM
[9]
  fold change (FC): 1.31
[10]
  fold change (FC): 5
[11]
  fold change (FC): 1.31
[12]
  fold change (FC): >=7.5
